From patent publication US20050069907A1, “Methods for using double-mutant RNA polymerases with reduced discrimination between non-canonical and canonical nucleoside triphosphates” (priority 2002, published 2005)

Key:
poly(rC) = assay: Activity on an RNA (poly(rC)) template; format: biochemical
Procedure: T7 RNAP as a reverse transcriptase or RNA replicase which initiates de novo: It has been reported that T7 RNAP can use both RNA and DNA templates (Konarska and Sharp, 1989). Therefore, it was determined if the Y639F mutant would use dNTPs when transcribing an RNA template (poly(rC), see Table IV).
Numbers give mean and range from 3 experiments. Template was at 0.2 mg/ml, polymerases at 10^−6 M. Labeling NTPs were α-P^32 rGTP, α-P^32 dGTP.

supercoiled pT75 = assay: Kinetic constants (Km, kcat) with rNTPs or dNTPs; format: biochemical
Source text: 1. One first determines the Km and the kcat for each enzyme (mutant and wild-type) using the non-canonical nucleotide as a substrate and using the canonical nucleotide as a substrate, as was described previously (Patra, et al., 1992). The value “Km” expresses how readily the enzyme will bind the substrate (a larger Km implies weaker binding) and “kcat” expresses the rapidity with which the substrate, once bound by the enzyme, is reacted upon.
2. One next calculates the numerical value for kcat/Km for each enzyme and for each substrate. By broad scientific consensus, the specificity of an enzyme for a substrate is felt to be most suitably expressed by this ratio.
3. For each enzyme, one then calculates the numerical value obtained by using the value of kcat/Km for the canonical substrate in the numerator and kcat/Km for the non-canonical substrate in the denominator. This number indicates how much a given enzyme discriminates between the two substrates. […] If this value is greater than 1, then the enzyme discriminates by that factor between the two substrates; for example, if the value is 100, then the enzyme discriminates by a factor of 100 in favor of the canonical substrate compared to the non-canonical substrate. Similarly, a value less than 1 means that the enzyme discriminates in favor of the non-canonical substrate over the canonical substrate.
4. Finally, one compares the numerical value calculated in step 3 above for the wild-type (W.T.) enzyme with the value calculated in step 3 for the mutant enzyme. If the value calculated for the mutant enzyme is less than the value calculated for the wild-type enzyme, then the mutant enzyme “has a reduced discrimination for the non-canonical substrate compared to the wild-type enzyme.” For example, if the values calculated in step 3 are 100 for the wild-type enzyme and 10 for the mutant enzyme, then the discrimination of the mutant enzyme in favor of the canonical substrate (or against the non-canonical substrate) is reduced 10-fold compared to the discrimination of the wild-type enzyme.
Determination of NTP Km and kcat was as described previously (Patra, et al., 1992).
The increased utilization of dNTPs by Y639F is due to both a decreased Km and an increased kcat for dNTPs: The Km and kcat of the W.T. and Y639F polymerases with rATP, rITP and 5 different dNTPs were measured (see, Table VI).

[1] = 2′,3′-dideoxy NTP preference (relative specificity kcat/Km NTP vs ddNTP); format: biochemical
Source text: Numbers reflect the relative specificity (kcat/Km) for an NTP vs. the corresponding ddNTP. Relative specificities could not be evaluated for the wild-type T7 RNAP because the ddNTPs are such poor substrates, but these relative specificities appear to be at least 150-fold.

pT75 = assay: Activity with NTPs containing different 2′-substituents; format: biochemical; parameters: unit not given here
Procedure: Activity was determined with pT75 as template but with one of the rNTPs replaced with a dNTP or a 2′-modified NTP. The labeling NTP was UTP (in reactions with 2′-modified CTPs or ATPs) or CTP (in reactions with 2′-modified UTPs). Y639F and Y639M represent enzymes with substitutions of the wild-type (W.T.) tyrosine at position 639 by phenyalanine (F) or methionine (M), respectively.

[2] = test system: 12 base DNA or RNA primers hybridized to a DNA template; assay: DNA- and RNA-primed synthesis of DNA and RNA; format: biochemical
Source text: DNA- and RNA-primed synthesis of DNA and RNA: In the assays described so far de novo initiated synthesis has been examined. T7 RNAP can also extend RNA primers. Therefore, the abilities of both polymerase to carry out DNA or RNA primed synthesis of DNA and RNA (FIG. 5) were examined.
Transcription reactions contained end-labeled 12 base DNA or RNA primers of identical sequence (GGACACGGCGAA, SEQ ID NO: 4) hybridized to a DNA template ([…] TAAGTATCC, SEQ ID NO: 5). Primer-template concentration was 10^-5 M. Reactions contained the indicated polymerases (10^-7 M) and NTPs. NTP concentrations and electrophoresis as in FIG. 1.

[3] = transcripts synthesized in vivo; cited from earlier work
[4] = .5 mM GTP, mean and range from 3 experiments
[5] = rATP, ranges from 3 experiments

Row | Substance | Activity on poly(rC) template (poly(rC); 1 mM GTP) | Activity on poly(rC) template (poly(rC); 1 mM dGTP + .5 mM GMP) | Activity on poly(rC) template (poly(rC); [4]) | Discrimination rNTPs vs. dNTPs: average kcat/Km of four rNTPs over average kcat/Km of four dNTPs (supercoiled pT75) | Kcat (supercoiled pT75; DTTP) [s⁻¹] | Km (supercoiled pT75; DTTP) [µM] | Kcat (supercoiled pT75; dATP) [s⁻¹] | Km (supercoiled pT75; dATP) [µM] | Kcat (supercoiled pT75; dCTP) [s⁻¹] | Km (supercoiled pT75; dCTP) [µM] | Kcat (supercoiled pT75; dGTP) [s⁻¹] | Km (supercoiled pT75; dGTP) [µM] | Kcat (supercoiled pT75; dUTP) [s⁻¹] | Km (supercoiled pT75; dUTP) [µM] | Kcat (supercoiled pT75; rATP) [s⁻¹] | Km (supercoiled pT75; [5]) [µM] | Kcat (supercoiled pT75; rITP) [s⁻¹] | Km (supercoiled pT75; rITP) [µM] | Activity (pT75; 2′-F-ATP replacing ATP) | Activity (pT75; 2′-F-CTP replacing CTP) | also measured
1 | W.T.: wild-type T7 RNA polymerase [reference compound] | <.5 | <.5 | 1000 | about 120 fold | 26 to 29 | 209 to 262 | 6 to 9 | 2000 to 5000 | 9 to 14 | 4300 to 13500 | 5 to 9 | 602 to 701 | 25 to 39 | 4400 to 9000 | 190 to 220 | 34 to 68 | 170 to 230 | 29 to 59 | 6.6 ± .12 | 3.4 ± .22 | Activity on poly(rC) (poly(rC); dGTP or dGTP+rGMP): not measurably active; Relative specificity NTP vs. corresponding ddNTP [1]: at least 150 fold; Activity (pT75; 2′-F-UTP replacing UTP): 3.1 ± .14; Activity (pT75; 2′-NH2-ATP replacing ATP): 18 ± .39; Activity (pT75; 2′-NH2-CTP replacing CTP): 34 ± .86; Activity (pT75; 2′-NH2-UTP replacing UTP): 5.9 ± .27; Activity (pT75; 2′-dATP replacing ATP): 2.7 ± .28; Activity (pT75; 2′-dCTP replacing CTP): 1.6 ± .16; Activity (pT75; 2′-dUTP replacing UTP): 2.4 ± .11; Activity (pT75; ATP): 100; Activity (pT75; CTP): 100; Activity (pT75; UTP): 100
2 | Y639F: T7 RNAP with wild-type tyrosine at position 639 substituted by phenylalanine | 62 (48-80) | 116 (90-148) | 505 (358-733) | about 6 fold | 70 to 110 | 38 to 59 | 50 to 70 | 200 to 350 | 50 to 90 | 920 to 1600 | 30 to 50 | 185 to 264 | 70 to 130 | 52 to 92 | 150 to 210 | 53 to 125 | 180 to 200 | 34 to 94 | 50 ± 1.4 | 63 ± 3.1 | Reduction of activity on poly(rC) (poly(rC); with dGTP): ~8 fold; Reduction of activity on poly(rC) (poly(rC); with dGTP+rGMP): ~4 fold; kcat with dNTPs less than for rNTPs (supercoiled pT75): 2-4 fold; Reduced discrimination between dNTPs and rNTPs compared to wild-type (supercoiled pT75; from average kcat/Km values): ~20 fold; Activity (pT75; 2′-F-UTP replacing UTP): 73 ± 2.6; Activity (pT75; 2′-NH2-ATP replacing ATP): 21 ± .75; Activity (pT75; 2′-NH2-CTP replacing CTP): 60 ± 2.5; Activity (pT75; 2′-NH2-UTP replacing UTP): 12 ± .41; Activity (pT75; 2′-dATP replacing ATP): 40 ± 1.3; Activity (pT75; 2′-dCTP replacing CTP): 57 ± 1.7; Activity (pT75; 2′-dUTP replacing UTP): 46 ± 2.4; Activity (pT75; ATP): 96 ± 3.0; Activity (pT75; CTP): 103 ± 2.3; Activity (pT75; UTP): 95 ± 6.7; Extension of DNA and RNA primers with dNTPs less efficient than with rNTPs [2]: ~4 fold; Protein per transcript compared to transcripts synthesized by wild-type enzyme [3]: ½-⅓
